In experiment [1] the test system is control sera (pooled serum of ten healthy LUMC hospital workers; commercial negative donor pooled serum from the Dutch bloodbank). The experiment is classed as binding, human. On the set-up: Binding of Control serum LUMC to linear peptides / Binding of Control serum Blood-bank to linear peptides / Binding of Control serum LUMC to looped peptides / Binding of Control Serum Blood-Bank to Looped peptides / Binding of Control serum LUMC to linear peptides of the protein M of SARS-CoV Urbani / Binding of Control serum Blood-bank to linear peptides of the protein M of SARS-CoV Urbani / Binding of Control serum LUMC to looped peptides of the protein M of SARS-CoV Urbani / Binding of Control Serum Blood-Bank to Looped peptides of the protein M of SARS-CoV Urbani: unit not given here.

For experiment [2], the system named is antibodies in sera from SARS patients (sera 1a, 1b, 2, 6, 37, 62, London, SARS-yellow, SARS-green). The experiment is classed as binding, human. On the set-up: Binding of serum 6 to linear peptides of protein X1 of SARS-CoV Urbani / Binding of serum 37 to linear peptides of protein X1 of SARS-CoV Urbani / Binding of serum 6 to looped/cyclic peptide (PEPSCAN-ELISA) / Binding of serum 37 to looped/cyclic peptide (PEPSCAN-ELISA) / Binding of serum 37 to looped/cyclic peptides of protein X1 of SARS-CoV Urbani / Binding of serum 6 to linear peptides of protein X2 / Binding of serum 37 to linear peptides of protein X2 / Binding of serum 37 to looped/cyclic peptides of protein X2 of SARS-CoV Urbani / Binding of serum 6 to linear peptides of protein M of SARS-CoV Urbani / Binding of serum 37 to linear peptides of protein M of SARS-CoV Urbani / Binding of serum 6 to looped/cyclic peptides of protein M of SARS-CoV Urbani / Binding of serum 37 to looped/cyclic peptides of protein M of SARS-CoV Urbani / Binding of serum 6 to linear peptides of protein X3 of SARS-CoV Urbani / Binding of serum 37 to linear peptides of protein X3 of SARS-CoV Urbani / Binding of serum 37 to looped/cyclic peptides of protein X3 of SARS-CoV Urbani / Binding of serum 6 to linear peptides of protein X4 of SARS-CoV Urbani / Binding of serum 37 to linear peptides of protein X4 of SARS-CoV Urbani / Binding of serum 37 to looped/cyclic peptides of protein X4 of SARS-CoV Urbani / Binding of serum 6 to linear peptides of protein X5 of SARS-CoV Urbani / Binding of serum 37 to linear peptides of protein X5 of SARS-CoV Urbani / Binding of serum 37 to looped/cyclic peptides of protein X5 of SARS-CoV Urbani / Binding of serum 6 to linear peptides of protein N of SARS-CoV Urbani / Binding of serum 37 to linear peptides of protein N of SARS-CoV Urbani / Binding of serum 6 to linear peptide (PEPSCAN-ELISA) / Binding of serum 1a to looped/cyclic peptides of protein N of SARS-CoV Urbani / Binding of serum 1b to looped/cyclic peptides of protein N of SARS-CoV Urbani / Binding of serum 2 to looped/cyclic peptides of protein N of SARS-CoV Urbani / Binding of serum 6 to looped/cyclic peptides of protein N of SARS-CoV Urbani / Binding of serum 37 to looped/cyclic peptides of protein N of SARS-CoV Urbani / Binding of serum 62 to looped/cyclic peptides of protein N of SARS-CoV Urbani / Binding of serum London to looped/cyclic peptides of protein N of SARS-CoV Urbani / Binding of serum SARS-green to looped/cyclic peptides of protein N of SARS-CoV Urbani: unit not given here.

The subject of experiment [3] is rabbit serum obtained by immunizing a rabbit with the SARS-CoV strain Frankfurt 1. The experiment is classed as binding. More on the design: Binding of a rabbit serum to linear peptides / Binding of a rabbit serum to looped peptides / Rabbit serum linear peptides / Rabbit serum looped peptides / Binding of a rabbit serum to linear peptides of protein N of SARS-CoV Urbani (Rabbit serum linear peptides) / Binding of a rabbit serum to looped/cyclic peptides of protein N of SARS-CoV Urbani (Rabbit serum looped peptides): unit not given here.

As to CTSTHFAFACADGTR, in experiment [1], the “Binding of Control Serum Blood-Bank to Looped peptides” value amounted to 0.8, the “Binding of Control serum Blood-bank to linear peptides” value stood at 0.7, the “Binding of Control serum LUMC to linear peptides” value worked out at 0.8 and the “Binding of Control serum LUMC to looped peptides” value is 0.7. Besides, in experiment [2], the “Binding of serum 1a to linear peptides of protein X4 of SARS-CoV Urbani” value turned out to be 0.7, the “Binding of serum 1a to looped/cyclic peptides of protein X4 of SARS-CoV Urbani” value is reported as 0.7, the “Binding of serum 1b to linear peptides of protein X4 of SARS-CoV Urbani” value was found to be 0.7 and the “Binding of serum 1b to looped/cyclic peptides of protein X4 of SARS-CoV Urbani” value is listed as 0.4. Besides, in experiment [2], the “Binding of serum 2 to linear peptides of protein X4 of SARS-CoV Urbani” value is on record as 0.5, the “Binding of serum 2 to looped/cyclic peptides of protein X4 of SARS-CoV Urbani” value was found to be 0.6, the “Binding of serum 6 to linear peptides of protein X4 of SARS-CoV Urbani” value amounted to 0.6 and the “Binding of serum 6 to looped/cyclic peptides of protein X4 of SARS-CoV Urbani” value came out at 0.6. Besides, in experiment [2], the “Binding of serum 37 to linear peptides of protein X4 of SARS-CoV Urbani” value came to 0.7, the “Binding of serum 37 to looped/cyclic peptides of protein X4 of SARS-CoV Urbani” value turned out to be 0.7, the “Binding of serum 62 to linear peptides of protein X4 of SARS-CoV Urbani” value stood at 0.8 and the “Binding of serum 62 to looped/cyclic peptides of protein X4 of SARS-CoV Urbani” value was found to be 0.7. For the same sequence, in experiment [2], the “Binding of serum London to linear peptides of protein X4 of SARS-CoV Urbani” value is 0.7, the “Binding of serum London to looped/cyclic peptides of protein X4 of SARS-CoV Urbani” value stood at 0.3, the “Binding of serum SARS-green to linear peptides of protein X4 of SARS-CoV Urbani” value is 0.6 and the “Binding of serum SARS-green to looped/cyclic peptides of protein X4 of SARS-CoV Urbani” value was 0.4. In addition, in experiment [2], the “Binding of serum SARS-yellow to linear peptides of protein X4 of SARS-CoV Urbani” value is reported as 0.4 and the “Binding of serum SARS-yellow to looped/cyclic peptides of protein X4 of SARS-CoV Urbani” value was 1.0. In experiment [3], the “Rabbit serum linear peptides” value worked out at 0.4 and the “Rabbit serum looped peptides” value was determined as 0.6.

For the sequence CWLCWKCKSKNPLLY, in experiment [1], the “Binding of Control Serum Blood-Bank to Looped peptides” value stood at 0.6, the “Binding of Control serum Blood-bank to linear peptides” value came to 0.9, the “Binding of Control serum LUMC to linear peptides” value came to 0.7 and the “Binding of Control serum LUMC to looped peptides” value is on record as 0.7. Further, in experiment [2], the “Binding of serum 1a to looped/cyclic peptide (PEPSCAN-ELISA)” value was determined as 0.7, the “Binding of serum 1b to looped/cyclic peptide (PEPSCAN-ELISA)” value was 0.4, the “Binding of serum 2 to looped/cyclic peptide (PEPSCAN-ELISA)” value is 0.5 and the “Binding of serum 6 to looped/cyclic peptide (PEPSCAN-ELISA)” value was 0.7. Moreover, in experiment [2], the “Binding of serum 37 to looped/cyclic peptide (PEPSCAN-ELISA)” value worked out at 0.7, the “Binding of serum 62 to looped/cyclic peptide (PEPSCAN-ELISA)” value came out at 0.7, the “Binding of serum London to looped/cyclic peptide (PEPSCAN-ELISA)” value is 0.3 and the “Binding of serum SARS-green to looped/cyclic peptide (PEPSCAN-ELISA)” value is 0.3. Also, in experiment [2], the “Binding of serum SARS-yellow to looped/cyclic peptide (PEPSCAN-ELISA)” value is reported as 0.5; the “Recognition of the peptide by sera of SARS-CoV infected individuals, and form (linear, looped/cyclic) in which it is recognized” value was “recognized in linear form”. Moreover, in experiment [3], the “Binding of a rabbit serum to linear peptides” value is listed as 0.2 and the “Binding of a rabbit serum to looped peptides” value turned out to be 0.7.

For the sequence DGTRHTYQLRARSVS, in experiment [1], the “Binding of Control Serum Blood-Bank to Looped peptides” value is listed as 0.8, the “Binding of Control serum Blood-bank to linear peptides” value stood at 0.6, the “Binding of Control serum LUMC to linear peptides” value was found to be 0.5 and the “Binding of Control serum LUMC to looped peptides” value is recorded as 0.7. In experiment [2], the “Binding of serum 1a to linear peptides of protein X4 of SARS-CoV Urbani” value is given as 0.6, the “Binding of serum 1a to looped/cyclic peptides of protein X4 of SARS-CoV Urbani” value was found to be 0.8, the “Binding of serum 1b to linear peptides of protein X4 of SARS-CoV Urbani” value is on record as 0.5 and the “Binding of serum 1b to looped/cyclic peptides of protein X4 of SARS-CoV Urbani” value worked out at 0.5. Besides, in experiment [2], the “Binding of serum 2 to linear peptides of protein X4 of SARS-CoV Urbani” value was determined as 0.8, the “Binding of serum 2 to looped/cyclic peptides of protein X4 of SARS-CoV Urbani” value was 0.8, the “Binding of serum 6 to linear peptides of protein X4 of SARS-CoV Urbani” value was determined as 0.8 and the “Binding of serum 6 to looped/cyclic peptides of protein X4 of SARS-CoV Urbani” value was 0.8. Also, in experiment [2], the “Binding of serum 37 to linear peptides of protein X4 of SARS-CoV Urbani” value was found to be 0.8, the “Binding of serum 37 to looped/cyclic peptides of protein X4 of SARS-CoV Urbani” value stood at 0.7, the “Binding of serum 62 to linear peptides of protein X4 of SARS-CoV Urbani” value amounted to 0.7 and the “Binding of serum 62 to looped/cyclic peptides of protein X4 of SARS-CoV Urbani” value is given as 0.7. Also, in experiment [2], the “Binding of serum London to linear peptides of protein X4 of SARS-CoV Urbani” value was 0.7, the “Binding of serum London to looped/cyclic peptides of protein X4 of SARS-CoV Urbani” value amounted to 0.4, the “Binding of serum SARS-green to linear peptides of protein X4 of SARS-CoV Urbani” value amounted to 0.4 and the “Binding of serum SARS-green to looped/cyclic peptides of protein X4 of SARS-CoV Urbani” value was 0.6. In addition, in experiment [2], the “Binding of serum SARS-yellow to linear peptides of protein X4 of SARS-CoV Urbani” value is 0.5 and the “Binding of serum SARS-yellow to looped/cyclic peptides of protein X4 of SARS-CoV Urbani” value came out at 0.7. Besides, in experiment [3], the “Recognition of the peptide by the rabbit serum” value was “recognized”.

With DLFMRFFTLGSITAQ, in experiment [1], the “Binding of Control Serum Blood-Bank to Looped peptides” value is 0.5, the “Binding of Control serum Blood-bank to linear peptides” value turned out to be 0.6, the “Binding of Control serum LUMC to linear peptides” value is reported as 0.6 and the “Binding of Control serum LUMC to looped peptides” value is reported as 0.5. In experiment [2], the “Binding of serum 1a to linear peptides of protein X1 of SARS-CoV Urbani” value is given as 0.7, the “Binding of serum 1a to looped/cyclic peptide (PEPSCAN-ELISA)” value is given as 0.5, the “Binding of serum 1b to linear peptides of protein X1 of SARS-CoV Urbani” value was found to be 0.5 and the “Binding of serum 1b to looped/cyclic peptide (PEPSCAN-ELISA)” value came to 0.3. Moreover, in experiment [2], the “Binding of serum 2 to linear peptides of protein X1 of SARS-CoV Urbani” value is reported as 0.4, the “Binding of serum 2 to looped/cyclic peptide (PEPSCAN-ELISA)” value was found to be 0.3, the “Binding of serum 6 to linear peptides of protein X1 of SARS-CoV Urbani” value came out at 0.1 and the “Binding of serum 6 to looped/cyclic peptide (PEPSCAN-ELISA)” value came to 0.3. Also, in experiment [2], the “Binding of serum 37 to linear peptides of protein X1 of SARS-CoV Urbani” value is recorded as 0.6, the “Binding of serum 37 to looped/cyclic peptide (PEPSCAN-ELISA)” value is on record as 0.5, the “Binding of serum 62 to linear peptides of protein X1 of SARS-CoV Urbani” value was 0.5 and the “Binding of serum 62 to looped/cyclic peptide (PEPSCAN-ELISA)” value came out at 0.5. For the same sequence, in experiment [2], the “Binding of serum London to linear peptides of protein X1 of SARS-CoV Urbani” value was determined as 0.2, the “Binding of serum London to looped/cyclic peptide (PEPSCAN-ELISA)” value was found to be 0.2, the “Binding of serum SARS-green to linear peptides of protein X1 of SARS-CoV Urbani” value turned out to be 0.2 and the “Binding of serum SARS-green to looped/cyclic peptide (PEPSCAN-ELISA)” value turned out to be 0.2. Besides, in experiment [2], the “Binding of serum SARS-yellow to linear peptides of protein X1 of SARS-CoV Urbani” value is 0.4 and the “Binding of serum SARS-yellow to looped/cyclic peptide (PEPSCAN-ELISA)” value was 0.2. Moreover, in experiment [3], the “Binding of a rabbit serum to linear peptides” value worked out at 0.1 and the “Binding of a rabbit serum to looped peptides” value is 0.3.

For the origin of these results see patent publication US20070128217A1 (priority 2003, published 2007).
